What all share (format): cell-based, Escherichia coli
One assay concerns E. coli ATTC 12435. The assay can be described thus: Lactic acid treatment followed by contact with surfactant (bile salts) on VRBA. The settings on record: quenched, then plated on VRBA (bile salts, neutral pH). On the procedure:
(§1) VRBA was designed for the enumeration of coliform bacteria by selecting against most other common bacteria. The principal difference between TSA and VRBA—besides the presence of indicator dyes in VRBA—is the inclusion of bile salts in the VRBA. Historically, bile salts were added to media used to culture intestinal bacteria in order to mimic the intestinal environment more closely. Bile salts also happen to be anionic surfactants.
(§2) Plating of serial dilutions of E. coli SAC-2 made in dilute phosphate buffer (pH 7.2) on VRBA was completed in less than 15 minutes after termination of individual reaction mixtures by addition of quench buffer (phosphate, pH 7.2). Thus, contact with the surfactant in VRBA was made in less than 15 minutes and more than 8 minutes after reaction termination.
The observations were confirmed with E. coli ATTC 12435 as follows: […]

The next assay deals with E. coli ATCC 43888. The assay can be described thus: Reaction mixture streak plate, visual observation. The settings on record: 2.5 wt. % lactic acid only (Niaproof 08 0), room temperature. On the procedure:
The tests were performed at room temperature.

Assay [1] deals with E. coli SAC-2. Kind of assay: Lactic acid treatment followed by contact with surfactant (bile salts) on VRBA. The settings on record: quenched, then plated on VRBA (bile salts, neutral pH). Here is the method:
as §1, §2

Assay [2] deals with E. coli ATCC 43888 (O157:H7). Kind of assay: Log kill in aqueous bacterial suspension, plating on TSA. The following applies: for Lactic Acid (Log Kill): 2.5% lactic acid, 73 deg. F.; for Log Kill: lactic acid alone, ca. 75 deg. F., TSA.
For another assay, the system named is E. coli ATCC 12435. The assay can be described thus: Log kill / surviving titer in aqueous bacterial suspension, plating on TSA. The settings on record: for Log Kill (TSA): lactic acid alone, plated on TSA; for Log Kill (Lactic Acid + Surfactant): 15 seconds, 74 to 80 degrees F. Here is the method: The “reaction” (i.e. interaction of antimicrobial agent and the target organism) was initiated by the addition of bacteria to the antimicrobial solution. The reaction was allowed to proceed for the respective time periods listed in Table I (i.e., at least 15 seconds each) and was terminated at the end of that time by adding quench buffer comprising 3.2 M potassium phosphate buffer, pH 7.2. The sample then was evaluated using serial 10-fold dilutions into sterile phosphate buffer as needed to determine, on Tryptic Soy agar (“TSA”), the titer of surviving bacteria. TSA is a medium that allows the growth of most bacteria.
The reduction in the bacterial count is expressed as the “log kill” which is defined as log10 [initial cfu/ml]−log10 [remaining cfu/ml]; where “cfu” refers to “colony forming unit.” All log kills reported herein are positive “base 10.”). Inasmuch as the standard assay mixture contained only ca. 25×10^6 cfu initially (equivalent to 7.398 log) the theoretical maximum kill that can be measured with this assay system is ca. 7.4 log and the practical measuring limit is ca. 6 log. Therefore, high levels of log reduction were monitored by plating reaction mixtures directly (without dilution) onto agar medium. The results are reported in Table I and illustrated in graph format in FIG. 1. […] The tests were replicated with E. coli ATCC 43888, a pathogenic strain of E. coli O157:H7. […]
After incubation for 15 seconds at ambient temperature the reaction was quenched by addition of phosphate buffer and the titer of surviving bacteria was determined by plating on TSA as described in the previous examples. […] The amphoteric and zwitterionic surfactants, which carry a net positive charge under the conditions of the reaction mixture, caused enhancement of the log kill by lactic acid. All anionic surfactants tested caused substantial enhancement of the log kill by lactic acid.

Assay [3] deals with E. coli SAC-2. The description is as above. The following applies: for Log Kill (TSA): lactic acid alone, plated on TSA; for Log Kill (Lactic Acid + Surfactant): surfactant 0.2% in 2.5% lactic acid. Here is the method:
In each instance a target sample was employed using approximately 50 micro liters of an SAC-2 culture. E. coli “SAC-2,” was a Gram-negative strain isolated from municipal sewage. The tests were performed at room temperature, i.e., 75 deg. F. […] The results of each test sample were evaluated using a series of 10-fold dilutions as needed to determine, on a standard plating agar (TSA), the titer of bacteria that survived the antimicrobial treatment.
The same procedure was employed as in Example 2, but the only agent added to the target solution was Niaproof 08. No lactic acid was employed.
The mixture was then diluted and plated as previously described.
Increasing amounts of reagent were added to a series of test tubes. […] The bacterial titer of each mixture was determined by preparation and plating of serial dilutions on TSA.
[…] […] The amphoteric and zwitterionic surfactants, which carry a net positive charge under the conditions of the reaction mixture, caused enhancement of the log kill by lactic acid. All anionic surfactants tested caused substantial enhancement of the log kill by lactic acid.

The test system of another assay is E. coli ATCC 14235. Kind of assay: Log kill in aqueous bacterial suspension, plating on TSA. The settings on record: lactic acid alone, ca. 75 deg. F. On the procedure:
The tests were performed at ambient temperature (ca. 75 deg. F.). The “reaction” (i.e. interaction of antimicrobial agent and the target organism) was initiated by the addition of bacteria to the antimicrobial solution. The reaction was allowed to proceed for the respective time periods listed in Table I (i.e., at least 15 seconds each) and was terminated at the end of that time by adding quench buffer comprising 3.2 M potassium phosphate buffer, pH 7.2. The sample then was evaluated using serial 10-fold dilutions into sterile phosphate buffer as needed to determine, on Tryptic Soy agar (“TSA”), the titer of surviving bacteria. TSA is a medium that allows the growth of most bacteria.
The reduction in the bacterial count is expressed as the “log kill” which is defined as log10 [initial cfu/ml]−log10 [remaining cfu/ml]; where “cfu” refers to “colony forming unit.” All log kills reported herein are positive “base 10.”). Inasmuch as the standard assay mixture contained only ca. 25×10^6 cfu initially (equivalent to 7.398 log) the theoretical maximum kill that can be measured with this assay system is ca. 7.4 log and the practical measuring limit is ca. 6 log. Therefore, high levels of log reduction were monitored by plating reaction mixtures directly (without dilution) onto agar medium. The results are reported in Table I and illustrated in graph format in FIG. 1. […] The tests were replicated with E. coli ATCC 43888, a pathogenic strain of E. coli O157:H7.

The mark [4] stands for this setting: 2.5 wt. % lactic acid only (Niaproof 08 0.00).
[5] abbreviates: surfactant 0.2% in 2.5% lactic acid.
[6] abbreviates: 15 seconds, 74 to 80 degrees F.

In the case of `CC(O)C(=O)O` (centres unmarked) [Lactic Acid, lactic acid, reference compound], the “Log Kill (VRBA)” value is recorded as 5.328 log in the assay with E. coli ATTC 12435 (lactic acid 15 secs); 5.328 log in the assay with E. coli ATTC 12435 (lactic acid 30 secs); 5.328 log in the assay on E. coli ATTC 12435 (lactic acid 45 secs); 5.328 log with E. coli ATTC 12435 (lactic acid 60 secs); 0.509 log with E. coli SAC-2 [1] (lactic acid 15 secs); 2.812 log in the assay with E. coli SAC-2 [1] (lactic acid 30 secs). Also, the “Log Kill (VRBA)” value in the assay on E. coli SAC-2 [1] (lactic acid 45 secs) came out at 3.330 log. In the assay on E. coli ATCC 43888, the Description/Observation entry is on record as “Extensive bacterial growth”. Also, the “in 2.5% Lactic Acid (Log Kill)” value in assay [2] (2.5% lactic acid only (sodium lauryl sulfate 0)) is listed as 2.2 log. Besides, the “Lactic Acid (Log Kill)” value worked out at 2.44 log in assay [2] (pH 2.19, 20 secs.); 2.71 log in assay [2] (pH 2.42, 20 secs.); 1.81 log in assay [2] (pH 2.59, 20 secs.); 1.21 log in assay [2] (pH 2.74, 20 secs.); 0.732 log in assay [2] (pH 2.86, 20 secs.); 0.117 log in assay [2] (pH 3.24, 20 secs.). Further, in assay [2] (pH 3.67, 20 secs.), the “Lactic Acid (Log Kill)” value was determined as 0.041 log. The “in […] Lactic Acid (Log Kill)” value in assay [2] ([…] lactic acid only (sodium lauryl sulfate 0), 15 seconds, 75 degrees F.) turned out to be 0.403 log. The “Log Kill” value in assay [2] (15 secs) is on record as 1.24 log; in assay [2] (30 secs) it was 1.76 log; in assay [2] (45 secs), 1.89 log; in assay [2] (60 secs), 2.63 log; with E. coli ATCC 12435 (setting [4]), 2.283 log; in the assay on E. coli SAC-2 [3] (2.5 wt. % lactic acid only (Niaproof 08 0.00), 15 seconds, room temperature) it was 0.456 log. The “Log Kill” value in the assay on E. coli ATCC 14235 (15 secs) was 1.431 log; in the assay with E. coli ATCC 14235 (30 secs), 2.217 log; with E. coli ATCC 14235 (45 secs), 3.246 log; in the assay with E. coli ATCC 14235 (60 secs), 3.722 log. The “Log Kill (Lactic Acid)” value in the assay with E. coli ATCC 12435 (2.5% lactic acid only, paired control of Niaproof 08, 15 seconds, 83 degrees F.) is listed as 2.28 log; in the assay with E. coli SAC-2 [3] (2.5% lactic acid only, paired control of the surfactant in that line, 15 seconds, 74 to 80 degrees F.), 0.083 log. For the same compound, the “Enhancement Factor” value in the assay with E. coli ATCC 12435 (setting [4]) was 1.0. Besides, the “Log Kill (TSA)” value in the assay on E. coli ATCC 12435 (15 secs) was 1.431 log; with E. coli ATCC 12435 (30 secs), 2.217 log; in the assay on E. coli ATCC 12435 (45 secs) it was 3.246 log; in the assay on E. coli ATCC 12435 (60 secs), 3.722 log; in the assay on E. coli SAC-2 [3] (15 secs) it was 0.188 log; in the assay with E. coli SAC-2 [3] (30 secs), 0.439 log. Moreover, the “Log Kill (TSA)” value with E. coli SAC-2 [3] (45 secs) was 0.801 log. Further, in the assay on E. coli SAC-2 [3] (setting [4]), the “Enhancement Factor (log10 kill with lactic acid and surfactant divided by log10 kill with lactic acid only)” value was 1.00. Besides, the “Log Kill […] Lactic Acid” value in the assay on E. coli SAC-2 [3] ([…] lactic acid only (Niaproof 08 0.00), 15 seconds, 75 degrees F.) was 0.336 log.
coco amidoalkyl betaine [Norfox CAPB]: the “Log Kill (Lactic Acid + Surfactant)” value with E. coli ATCC 12435 (0.1% CAPB in 2.5% lactic acid) was found to be 6.25 log.
In the case of `CCCCC(CC)COC(=O)CC(C(=O)OCC(CC)CCCC)S(=O)(=O)[O-].[Na+]` (centres unmarked) [Sodium dioctyl sulfosuccinate], the “Log Kill (Lactic Acid + Surfactant)” value with E. coli ATCC 12435 (setting [5]) was 6.67 log.
In the case of `CCCCCCCCS(=O)(=O)[O-].[Na+]` [Bioterge PAS-8S, sodium octane sulfonate], the “Log Kill (Lactic Acid + Surfactant)” value with E. coli ATCC 12435 (setting [5]) is 6.31 log.
Turning to “coconut based imidazoline, dicarboxylate, sodium salt [Amphoterge K2]”, the “Log Kill (Lactic Acid + Surfactant)” value with E. coli ATCC 12435 (setting [5]) worked out at 2.86 log.
As for “Polyoxyethylene (20) sorbitan monooleate [Tween 80]”, in the assay on E. coli SAC-2 [3] (setting [6]), the “Log Kill (Lactic Acid + Surfactant)” value is 0.18 log.
Consider “phosphate ester of polyoxyalkylated fatty alcohol [Klearfac AA270]”, for which the “Log Kill (Lactic Acid + Surfactant)” value with E. coli ATCC 12435 (setting [5]) worked out at 6.31 log; in the assay on E. coli SAC-2 [3] (setting [6]), 2.56 log.
In the case of ethoxylated nonylphenol [T-Det N 9.5], the “Log Kill (Lactic Acid + Surfactant)” value in the assay on E. coli SAC-2 [3] (setting [6]) is 0.18 log.

These data come from patent publication US20140272041A1, “METHODS OF REDUCING PATHOGENS DURING PROCESSING OR POST-PROCESSING OF BEEF, POULTRY AND OTHER MEAT PRODUCTS” (BIRKO Corporation, priority 2009, published 2014).
